In US10703746B2, “Mutant IDH1 inhibitors useful for treating cancer” (THE UNITED STATES OF AMERICA, AS REPRESENTED BY THE …, priority 2014, dated 2020) one finds IC50 data, which are given here for 47 compounds.

Test [1] concerns the target IDH1 R132H (Homo sapiens, UniProt O75874, R132H). The experiment in a line: IDH1 R132H enzymatic assay (NADPH depletion coupled to diaphorase/resazurin). It is filed as biochemical. (The colour change of resazurin is a common sign of viable cells or microbes.)
Test [2] has as its target IDH1 R132C (Homo sapiens, UniProt O75874, R132C). The experiment in a line: IDH1 R132C enzymatic assay (NADPH depletion coupled to diaphorase/resazurin). It is filed as biochemical. An outline of the steps: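 NADPH depletion, read via diaphorase/resazurin coupling, after adding substrate at 0.6 mM α-KG and 0.012 mM NADPH. Beforehand, 0.00032 mg/mL enzyme sat with compound 30 min at room temperature in pH 6.5 potassium phosphate buffer with MgCl2, glycerol and BSA.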

Setting [3] is: IDH1 R132H enzymatic inhibition, IC50 class.
The mark [4] stands for this setting: IDH1 R132C enzymatic inhibition, IC50 class.
[5] abbreviates: enzymatic inhibition, IDH1 R132H.
The mark [6] stands for this setting: enzymatic inhibition, IDH1 R132C.

For orientation: IC50 means the concentration needed to halve the response being measured. Read a high IC50 as lower potency.

Chain of IDH1 R132C (O75874 whole entry R132C): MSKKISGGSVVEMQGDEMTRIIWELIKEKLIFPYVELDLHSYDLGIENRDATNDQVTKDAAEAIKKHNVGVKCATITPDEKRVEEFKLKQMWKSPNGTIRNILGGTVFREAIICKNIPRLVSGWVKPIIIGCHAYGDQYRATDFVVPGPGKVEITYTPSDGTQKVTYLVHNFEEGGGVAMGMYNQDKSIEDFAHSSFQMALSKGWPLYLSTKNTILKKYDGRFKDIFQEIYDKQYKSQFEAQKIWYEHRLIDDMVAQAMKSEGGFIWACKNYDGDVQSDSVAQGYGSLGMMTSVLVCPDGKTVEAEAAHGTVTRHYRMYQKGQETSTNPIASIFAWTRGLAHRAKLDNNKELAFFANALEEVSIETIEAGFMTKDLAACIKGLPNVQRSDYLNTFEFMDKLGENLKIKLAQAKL
Chain of IDH1 R132H (O75874 whole entry R132H): as the sequence (O75874 whole entry R132C) above, with C132H counted along it

As to `CCc1cccc(CC)c1-n1c(C)c(C(=O)NC(C)(C)C)cc(-c2nc(-c3ccc(Cl)cc3)cs2)c1=O` [Compound 123], the IC50 was in the range of 5 to 20 µM in test [1] (setting [3]) and 1 to 5 µM in test [2] (setting [4]).
On to `CCOc1cccc(OCC)c1-n1c2c(cc(-c3nc(-c4ccc(Cl)cc4)cs3)c1=O)C(=O)CCC2` [Compound 444], for which the IC50 in test [1] (setting [5]) and in test [2] (setting [6]) was 0.3 to 1 µM in each case.
`CC(C)=Cc1c(C(=O)N2CCNCC2)cc(-c2nc(-c3ccc(Cl)cc3)cs2)c(=O)n1-c1cc(F)ccc1Cl` [Compound 409]: the IC50 in test [1] (setting [5]) and in test [2] (setting [6]) was less than 0.3 µM throughout.
On to `CCc1cccc(CC)c1-n1c(C=C(C)C)c(C(=O)N2C[C@H]3CC[C@@H](C2)N3)cc(-c2nc(-c3ccc(Cl)cc3)cs2)c1=O` [Compound 388], for which the IC50 in test [1] (setting [3]) and in test [2] (setting [4]) was less than 0.3 µM each time.
`Cc1noc(C)c1-n1c2c(cc(-c3nc(-c4ccc(Cl)cc4)cs3)c1=O)C(=O)CC(C)(C)C2` [Compound 13]: the IC50 in test [1] (setting [3]) is more than 20 µM; in test [2] (setting [4]), 1 to 5 µM.
Taken in the same sequence, the figures for `CCOc1ccc(C)cc1-n1c(CC(C)C)c(C(=O)N2CCNCC2)cc(-c2nc(-c3ccc(C(F)F)cc3)cs2)c1=O` [Compound 685] were less than 0.3 µM and less than 0.3 µM.
As to `O=c1c(-c2nc(-c3ccc(Cl)cc3)cs2)cc2c(O)cccc2n1-c1cccnc1` [Compound 514], the IC50 was more than 20 µM in test [1] (setting [5]) and 1 to 5 µM in test [2] (setting [6]).
As for `CCc1cccc(CC)c1-n1c(C)c(C(=O)NC[C@@H](C)O)cc(-c2nc(-c3ccc(Cl)cc3)cs2)c1=O` [Compound 151], the values for the IC50 in test [1] (setting [3]) and in test [2] (setting [4]) were 1 to 5 µM and 0.3 to 1 µM, respectively.
For `CCc1cccc(CC)c1-n1c(C)c(C(=O)N2CCC(NC)C2)cc(-c2nc(-c3ccc(Cl)cc3)cs2)c1=O` (stereo not shown) [Compound 207], the IC50 in test [1] (setting [3]) and in test [2] (setting [4]) was 1 to 5 µM in each case.
With `CCOC(=O)c1ncsc1-n1c2c(cc(-c3nc(-c4ccc(Cl)cc4)cs3)c1=O)C(=O)CC(C)(C)C2` [Compound 561], the IC50 in test [1] (setting [5]) and in test [2] (setting [6]) was 1 to 5 µM in each case.
On to `Cc1ccc([N+](=O)[O-])cc1-n1c2c(cc(-c3nc(-c4ccc(Cl)cc4)cs3)c1=O)C(=O)CC(C)(C)C2` [Compound 182], for which the half-inhibitory concentration (IC50) in test [1] (setting [3]) and in test [2] (setting [4]) was 1 to 5 µM throughout.
As for `CC(=O)c1ccccc1-n1c2c(cc(-c3nc(-c4ccc(Cl)cc4)cs3)c1=O)C(=O)CC(C)(C)C2` [Compound 286], the IC50 in test [1] (setting [3]) and in test [2] (setting [4]) was 1 to 5 µM in each case.
With `CCc1cccc(CC)c1-n1c(CC(C)C)c(C(=O)N2CCNCC2(C)C)cc(-c2nc(-c3ccc(Cl)cc3)cs2)c1=O` [Compound 274], the values for the IC50 in test [1] (setting [3]) and in test [2] (setting [4]) were 0.3 to 1 µM and less than 0.3 µM, respectively.
As to `CCc1ccc(Cl)cc1-n1c(C=C(C)C)c(C(=O)N2CCNCC2)cc(-c2nc(-c3ccc(C(F)F)cc3)cs2)c1=O` [Compound 571], the IC50 in test [1] (setting [5]) and in test [2] (setting [6]) was less than 0.3 µM throughout.
`CC1(C)CC(=O)c2cc(-c3nc(-c4ccc(F)cc4)cs3)c(=O)n(-c3ccccc3C(F)(F)F)c2C1` [Compound 30]: the IC50 in test [1] (setting [3]) and in test [2] (setting [4]) was 0.3 to 1 µM each time.
With `CCc1cccc(CC)c1-n1c(C)c(C(=O)N2CCC(O)C2)cc(-c2nc(-c3ccc(Cl)cc3)cs2)c1=O` (stereo not shown) [Compound 103], the half-inhibitory concentration (IC50) in test [1] (setting [3]) is 1 to 5 µM; in test [2] (setting [4]) it was 5 to 20 µM.
For the compound `CCc1cccc(CC)c1-n1c(CC(C)C)c(C(=O)NC(C)CO)cc(-c2nc(-c3ccc(Cl)cc3)cs2)c1=O` (stereo not shown) [Compound 118], the IC50 in test [1] (setting [3]) is 0.3 to 1 µM; in test [2] (setting [4]), less than 0.3 µM.
Take `COc1cc(Cl)ccc1-n1c2c(cc(-c3nc(-c4ccc(Cl)cc4)cs3)c1=O)C(=O)CC(C)(C)C2` [Compound 579]: the IC50 in test [1] (setting [5]) and in test [2] (setting [6]) was 5 to 20 µM each time.
Regarding `CCc1cccc(CC)c1-n1c(C)c(C(=O)N2CCCC2C(=O)O)cc(-c2nc(-c3ccc(Cl)cc3)cs2)c1=O` (stereo not shown) [Compound 258], the IC50 in test [1] (setting [3]) and in test [2] (setting [4]) was 1 to 5 µM in each case.
Take `CCc1cccc(CC)c1-n1c2c(cc(-c3nc(-c4ccc(Cl)cc4)cs3)c1=O)C(=O)CC(C)(C)C2` [Compound 282]: the results for the IC50 in test [1] (setting [3]) and in test [2] (setting [4]) were 0.3 to 1 µM and less than 0.3 µM, respectively.
Taken in the same sequence, the figures for `CCc1cccc(CC)c1-n1c(C(C)C)c(C(=O)O)cc(-c2nc(-c3ccc(Cl)cc3)cs2)c1=O` [Compound 98] were 1 to 5 µM and 5 to 20 µM.
Taken in the same sequence, the figures for `CCc1cccc(CC)c1-n1c(C)c(C(=O)OC)cc(-c2nc(-c3ccc(Cl)cc3)cs2)c1=O` [Compound 268, methyl 5-(4-(4-chlorophenyl)thiazol-2-yl)-1-(2,6-diethylphenyl)-2-methyl-6-oxo-1,6-dihydropyridine-3-carboxylate] were more than 20 µM and 5 to 20 µM.
For `CCc1cccc(CC)c1-n1c(CC(C)C)c(C(=O)N2CCNCC2)cc(-c2nc(-c3ccc(OC)nc3)c(C)s2)c1=O` [Compound 322], in that order: 0.3 to 1 µM and 0.3 to 1 µM.
Regarding `CCc1ccccc1-n1c(C=C(C)C)c(C(=O)N2CCNCC2)cc(-c2nc(-c3ccc(Cl)cc3)cs2)c1=O` [Compound 596], the IC50 in test [1] (setting [5]) and in test [2] (setting [6]) was less than 0.3 µM throughout.
For `CCc1cccc(CC)c1-n1c(C)c(C(=O)N2CCNC(CO)C2)cc(-c2nc(-c3ccc(Cl)cc3)cs2)c1=O` (stereo not shown) [Compound 106], the IC50 in test [1] (setting [3]) is less than 0.3 µM; in test [2] (setting [4]), 0.3 to 1 µM.
As for `CN1CCN(c2ccc(-n3c4c(cc(-c5nc(-c6ccc(Cl)cc6)cs5)c3=O)C(=O)CC(C)(C)C4)c(C(F)(F)F)c2)CC1` [Compound 493], the IC50 in test [1] (setting [5]) and in test [2] (setting [6]) was 5 to 20 µM each time.
In the case of `CCc1cccc(CC)c1-n1c(CC(C)C)c(C(=O)N2CCNCC2)cc(-c2nc(-c3ccc(C(=O)N(C)C)cc3)c(C)s2)c1=O` [Compound 419], the IC50 in test [1] (setting [5]) and in test [2] (setting [6]) was 1 to 5 µM each time.
As for `CCOc1ccc(OCC)c(-n2c(C=C(C)C)c(C(=O)N3CCNCC3)cc(-c3nc(-c4ccc(Cl)cc4)cs3)c2=O)c1` [Compound 348], the IC50 in test [1] (setting [3]) and in test [2] (setting [4]) was less than 0.3 µM each time.
In the case of `COC(=O)c1ccccc1-n1c2c(cc(-c3nc(-c4ccc(Cl)cc4)cs3)c1=O)C(=O)CC(C)(C)C2` [Compound 254], the IC50 in test [1] (setting [3]) and in test [2] (setting [4]) was 0.3 to 1 µM throughout.
Take `Cc1ccc(-n2c3c(cc(-c4nc(-c5ccc(Cl)cc5)cs4)c2=O)C(=O)CC(C)(C)C3)c(Cl)c1` [Compound 594]: the IC50 in test [1] (setting [5]) is more than 20 µM; in test [2] (setting [6]), 1 to 5 µM.
Take `CCc1cccc(CC)c1-n1c(C)c(C(=O)NCCNC)cc(-c2nc(-c3ccc(Cl)cc3)cs2)c1=O` [Compound 15]: the IC50 in test [1] (setting [3]) is 1 to 5 µM; in test [2] (setting [4]), less than 0.3 µM.
For the compound `CCc1cccc(CC)c1-n1c(CC(C)C)c(C(=O)NCC(O)c2ccccc2)cc(-c2nc(-c3ccc(Cl)cc3)cs2)c1=O` (stereo not shown) [Compound 232], the IC50 in test [1] (setting [3]) is 0.3 to 1 µM; in test [2] (setting [4]), less than 0.3 µM.
For `COc1ncccc1-n1c2c(cc(-c3nc(-c4ccc(Cl)cc4)cs3)c1=O)C(=O)CC(C)(C)C2` [Compound 661], in that order: 1 to 5 µM and 0.3 to 1 µM.
`CCc1cccc(CC)c1-n1c(CC(C)C)c(C(=O)N2CCNCC2)cc(-c2ccn(-c3ccc(C(F)(F)F)cc3)n2)c1=O` [Compound 640]: the IC50 in test [1] (setting [3]) and in test [2] (setting [4]) was less than 0.3 µM throughout.
Consider `CCc1cccc(CC)c1-n1c(C=C(C)C)c(C(=O)N2CCNCC2)cc(-c2ccn(-c3ccc(C(F)(F)F)cc3)n2)c1=O` [Compound 511], for which the IC50 in test [1] (setting [5]) and in test [2] (setting [6]) was less than 0.3 µM throughout.
As to `CCc1cccc(C)c1-n1c2c(cc(-c3nc(-c4ccccc4)cs3)c1=O)C(=O)CCC2` [Compound 543], the IC50 in test [1] (setting [5]) was in the range of 5 to 20 µM; in test [2] (setting [6]), 1 to 5 µM.
`CN1CCN(c2ccc(C(F)(F)F)c(-n3c4c(cc(-c5nc(-c6ccc(Cl)cc6)cs5)c3=O)C(=O)CC(C)(C)C4)c2)CC1` [Compound 645]: the IC50 in test [1] (setting [3]) and in test [2] (setting [4]) was 1 to 5 µM each time.
As to `COc1ccc(F)cc1-n1c(C=C(C)C)c(C(=O)N2CCNCC2)cc(-c2nc(-c3ccc(Cl)cc3)cs2)c1=O` [Compound 630], the IC50 in test [1] (setting [3]) and in test [2] (setting [4]) was less than 0.3 µM in each case.
For `CCc1cccc(CC)c1-n1c(CC(C)C)c(C(=O)N2CCNCC2)cc(-c2nc(-c3ccc(Cl)c(OC)c3)c(C)s2)c1=O` [Compound 633], the IC50 in test [1] (setting [3]) and in test [2] (setting [4]) was 0.3 to 1 µM in each case.
On to `CCOc1ccc(Cl)cc1-n1c(CC(C)C)c(C(=O)N2CCNCC2)cc(-c2nc(-c3ccc(C(F)F)cc3)cs2)c1=O` [Compound 687], for which the IC50 in test [1] (setting [3]) and in test [2] (setting [4]) was 0.3 to 1 µM each time.
Turning to `Cc1ccc(-c2csc(-c3cc4c(n(-c5ccccc5C(F)(F)F)c3=O)CC(C)(C)CC4=O)n2)cc1` [Compound 71], the IC50 in test [1] (setting [3]) and in test [2] (setting [4]) was 0.3 to 1 µM in each case.
With `COc1ncc(C2=CCNCC2)cc1-n1c2c(cc(-c3nc(-c4ccc(Cl)cc4)cs3)c1=O)C(=O)CC(C)(C)C2` [Compound 351], the IC50 in test [1] (setting [3]) and in test [2] (setting [4]) was 5 to 20 µM in each case.
As for `CCc1cccc(CC)c1-n1c(C)c(C(=O)NC2CCCC(O)C2)cc(-c2nc(-c3ccc(Cl)cc3)cs2)c1=O` (stereo not shown) [Compound 18], the IC50 in test [1] (setting [3]) lay within 5 to 20 µM; in test [2] (setting [4]), 1 to 5 µM.
As for `CCc1cccc(C)c1-n1c(C)c(C(=O)N2CCNCC2)cc(-c2nc(-c3ccc(Cl)cc3)cs2)c1=O` [Compound 432], the IC50 in test [1] (setting [5]) was in the range of 0.3 to 1 µM; in test [2] (setting [6]) it was 1 to 5 µM.
On to `CCc1cccc(CC)c1-n1c2c(cc(-c3nc(-c4cnn(C)c4)c(C)s3)c1=O)C(=O)CC(C)(C)C2` [Compound 239], for which the IC50 in test [1] (setting [3]) and in test [2] (setting [4]) was 1 to 5 µM each time.
`CCc1cccc(CC)c1-n1c(C=C(C)C)c(C(=O)N2CC3(CNC3)C2)cc(-c2nc(-c3ccc(Cl)cc3)cs2)c1=O` [Compound 512]: the IC50 in test [1] (setting [5]) and in test [2] (setting [6]) was less than 0.3 µM throughout.
Turning to `COC(=O)c1ccsc1-n1c2c(cc(-c3nc(-c4ccc(Cl)cc4)cs3)c1=O)C(=O)CC(C)(C)C2` [Compound 652], the IC50 in test [1] (setting [3]) and in test [2] (setting [4]) was 0.3 to 1 µM throughout.
